The values that follow come from publication PMC10135033, “Sulfonamidoboronic Acids as “Cross-Class” Inhibitors of an Expanded-Spectrum Class C Cephalosporinase, ADC-33, and a Class D Carbapenemase, OXA-24/40: Strategic Compound Design to Combat Resistance in Acinetobacter baumannii” (Antibiotics, 2023).

The subject of test [1] is OXA-24/40. The arrangement: method as in PMID 20299220. The note with it: cited from earlier work.
The target of the next test is ADC-33 (Acinetobacter baumannii, UniProt A7Y407). The test can be described thus: Ki determination, competition assay with nitrocefin (NCF) as substrate. The class given is biochemical. Particulars: for Ki: corrected for NCF affinity, 5 min pre-incubation, pH 7.4. As for the experimental part:
(§1) The affinity of CR167 for the two different β-lactamases was measured in competition assays using nitrocefin (NCF) as the indicator substrate (Table 1).
(§2) The binding affinity of each of the compounds 6a–e with ADC-33 and with OXA-24/40 was determined after 5 min pre-incubation of boronic acid and the enzyme, using competition assays with nitrocefin (NCF) as the substrate. […] These compounds differ in three structural characteristics: stereochemistry, the presence of the m-carboxylate on the aromatic ring, and the small chain linked to the chiral center. […] Finally, the smaller the steric hindrance is at the R1 position, the higher the affinity is.
(§3) Ki values were determined by using nitrocefin as a reporter substrate and treating the compounds as competitive inhibitors. Steady-state kinetic parameters were determined by combining pure enzyme with nitrocefin in 50 mM NaH2PO4; 25 mM NaHCO3, pH 7.4 (for OXA-24/40); or 50 mM NaH2PO4, pH 7.4 (for ADC-33), at room temperature. Changes in absorbance were measured on a Cary 60 UV−Vis spectrophotometer (Agilent Technologies) and converted to velocity using the change-in-extinction coefficient specific to nitrocefin (ε = 17,400 M^−1·cm^−1 at 482 nm). Initial velocities were fit to the Michaelis–Menten equation, yielding kcat and Km values. Next, the enzyme was challenged with a constant concentration of nitrocefin and increasing amounts of inhibitor. IC50 values were used to calculate Ki values using the Cheng–Prusoff equation as previously described. Specifically, the measurements of the initial velocities were performed with the addition of 100 µM NCF after a 5 min pre-incubation of the enzyme (2 nM) with increasing concentration of the inhibitor [37]. To determine the average velocities (v0), data from three experiments were fit to Equation (1): (1) v0=vu −{vu[I]/IC 50+[I]} where vu represents the NCF uninhibited velocity and IC50 represents the inhibitor concentration that results in a 50% reduction in vu. The Ki value was corrected for the NCF affinity (Km values for both OXA-24/40 and ADC-33) with the Cheng–Prusoff equation (Equation (2)): (2) Ki=IC50/(1+[NCF]/KmNCF)

Test [2] has as its target T1, OXA-24/40 (Acinetobacter baumannii, UniProt Q8RLA6).
T1 construct: made in house
The test is described as above. In kind it is biochemical. The note with it: corrected for NCF affinity; 5 min pre-incubation; pH 7.4, 25 mM NaHCO3; read-out: Ki OXA-24/40. As for the experimental part:
as §1, §2, §3

The test system of test [3] is E. coli DH10B, ADC-33 in pBCSK-. The test can be described thus: Antimicrobial susceptibility testing, broth microdilution. In kind it is cell-based. Particulars: BLI none; E. coli DH10B ADC-33 pBCSK-. On the procedure:
(§4) Based upon the inhibitor kinetics (Ki determinations), CR167 and the sulfonamidoboronic acid 6b were tested against E. coli strains expressing ADC-7 and ADC-33 cloned into pBCSK- (DH10B) (Table 3).
(§5) blaADC-7 pBCSK- and blaADC-33 pBCSK- were cloned and expressed in E. coli DH10B cells as previously described.
(§6) Testing of susceptibility to standard antibiotics was performed with broth microdilution according to CLSI guidelines. MICs for CAZ, CTX, FEP, and IMI were determined using cation-adjusted Mueller–Hinton broth according to CLSI methods, and CR167 or 6b was used at a fixed concentration of 10 mg/L. All MICs were interpreted according to the 2022 Clinical and Laboratory Standards Institute (CLSI) guidelines.
In general terms: Broth dilution looks for growth in wells or tubes with falling amounts of substance.

Test [4] has as its system E. coli DH10B, ADC-7 in pBCSK-. The test is described as above. In kind it is cell-based. Particulars: BLI none; E. coli DH10B ADC-7 pBCSK-. As for the experimental part: as §4, §5, §6
The test system of test [5] is E. coli DH10B pBCSK, blaADC-7. Also on record: method as in PMID 29144724. The note with it: without inhibitor; cited from earlier work.
Test [6] concerns A. baumannii ATCC 17978 native ADC KO, OXA-24 pWH1266. The test can be described thus: Antimicrobial susceptibility testing, broth microdilution. Particulars: BLI none; ATCC 17978 ADC KO, OXA-24 pWH1266. In kind it is cell-based. On the procedure: (§7) The inhibitory effects of both compounds were tested against ADC-33 and OXA-24/-40 in A. baumannii, their native host. ATCC 17978, with its intrinsic chromosomal ADC knocked out (intrinsic OXA still present), was used in these experiments. In this isolate, the ADC MICs were not lowered by the inhibitors as much as they were against the E. coli background (Table 4).
(§8) pWH1266 is a vector that replicates in A. baumannii, and the […] pWH1266 construct was generated as follows. The TEM gene was removed using inverse PCR, and an Xba1 site was engineered into the vector. blaOXA-24/40 and its upstream XerC/XerD were amplified from strain NM55. The amplified gene was cloned into the Xba1 site of the altered pWH1266 vector. The construct was confirmed using PCR and sequencing. Both blaADC-33 pQF1266 and […] pWH1266 were then expressed in A. baumannii ATCC 17978 that had the intrinsic chromosomal ADC gene knocked out.
(§9) The chromosomal blaADC-51 gene in ATCC 17978 was deleted and replaced with an apramycin resistance cassette using the recombineering method described by Tucker et al.. Primers used for this deletion were: Del AmpC-apra.For: […]; and Del AmpC-apra.Rev: […]. The correct deletion mutant was confirmed using PCR and sequencing.
as §6

Test [7] has as its system A. baumannii ATCC 17978 native ADC KO, ADC-33 pQF1266. The test is described as above. In kind it is cell-based. Particulars: BLI none; ATCC 17978 ADC KO, ADC-33 pQF1266. On the procedure: as §7
Plasmid pBCSK- containing the blaADC-33 gene was digested with PvuII, which released the blaADC-33 gene, along with the lac promoter, which drives expression. This PvuII fragment was cloned into the SmaI site of the pQF1266 plasmid.
as §8, §9, §6

In test [8] the test system is clinical A. baumannii isolate PR378 (OXA-24, OXA-65, TEM-1). The test can be described thus: Antimicrobial susceptibility testing, clinical isolate, broth microdilution. The note with it: BLI none; PR378. In kind it is cell-based. On the procedure: (§10) Clinical A. baumannii isolates containing ADC-33 or OXA-24/-40 in combination with various other well-defined β-lactamases were also tested against CR167 and 6b (Table 5).
(§11) The clinical A. baumannii isolates used to test the β-lactamase inhibitors were selected from a previously well-characterized collection in our lab. They were chosen as they had either ADC-33 and/or OXA-24 in combination with other known β-lactamases (for specific combinations, see Table 5).
as §6

The test system of test [9] is clinical A. baumannii isolate PR408 (OXA-24, OXA-71, ADC-212). Described as above. In kind it is cell-based. The note with it: BLI none; PR408. On the procedure:
as §10, §11, §6

In test [10] the test system is clinical A. baumannii isolate PR462 (OXA-24, OXA-65, ADC-214). The test is described as above. In kind it is cell-based. Particulars: BLI none. As for the experimental part:
as §10, §11, §6

In test [11] the test system is clinical A. baumannii isolate PR474 (OXA-23, OXA-24, OXA-65, ADC-218). Described as above. The note with it: BLI none; PR474. The class given is cell-based. On the procedure: as §10, §11, §6
Test [12] deals with clinical A. baumannii isolate PR396 (OXA-82, ADC-33). The description is as above. In kind it is cell-based. Particulars: BLI none. On the procedure:
as §10, §11, §6

In test [13] the test system is clinical A. baumannii isolate PR328 (OXA-23, OXA-82, ADC-33). The test is described as above. In kind it is cell-based. The note with it: BLI none; PR328. As for the experimental part:
as §10, §11, §6

Test [14] has as its system clinical A. baumannii isolate PR323 (OXA-24, OXA-65, ADC-218). The test is described as above. In kind it is cell-based. The note with it: BLI none; PR323. As for the experimental part:
as §10, §11, §6

T1 sequence (Q8RLA6 22-275): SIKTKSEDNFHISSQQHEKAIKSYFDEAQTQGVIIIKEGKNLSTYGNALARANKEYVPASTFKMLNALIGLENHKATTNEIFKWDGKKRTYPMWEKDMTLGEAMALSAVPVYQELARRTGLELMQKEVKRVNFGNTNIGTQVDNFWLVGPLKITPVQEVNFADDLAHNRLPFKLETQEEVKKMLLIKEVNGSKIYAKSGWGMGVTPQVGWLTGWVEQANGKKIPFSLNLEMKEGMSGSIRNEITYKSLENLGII

The term IC50 denotes the point on the concentration scale where inhibition reaches its midpoint. As for `O=S(=O)(NCB(O)O)c1cc2c(Cl)ccc(Cl)c2s1` [DSABA, 4,7-dichloro-1-benzothien-2-yl-sulfonylaminomethyl boronic acid], the half-maximal inhibitory concentration (IC50) in the test on OXA-24/40 [1] is 5.6 µM.
In the case of `C[C@@H](NS(=O)(=O)Cc1ccccc1)B(O)O` [6a], the Ki on ADC-33 stood at 3.1 ± 0.5 µM; on OXA-24/40 [2], 630 ± 70 µM. For the same compound, at ADC-33 (ratio of Ki, 6a vs 6b), the “fold less potent than 6b, ADC-33” value was found to be 4 fold.
For the compound `CC[C@@H](NS(=O)(=O)Cc1cccc(C(=O)O)c1)B(O)O` [6d], the Ki is 22 ± 3 µM at ADC-33 and 320 ± 30 µM on OXA-24/40 [2].
`CC(C)(O/N=C(\C(=O)N[C@@H]1C(=O)N2C(C(=O)[O-])=C(C[n+]3ccccc3)CS[C@H]12)c1csc(N)n1)C(=O)O` [CAZ, ceftazidime, reference compound]: the “MIC, antibiotic alone” value in [3] was 2048 µg/mL; in test [4], 64 µg/mL; in test [6] it was 8 µg/mL; in [7], 128 µg/mL; in [8], 64 µg/mL; in [9] it was 1024 µg/mL. Besides, the “MIC, antibiotic alone” value in [10] was 256 µg/mL; in test [11], 4096 µg/mL; in test [12] it was 2048 µg/mL; in [13], 2048 µg/mL; in test [14] it was 4096 µg/mL. The “MIC for CAZ alone” value in [5] is 64 µg/mL.
As to `CC[C@H](NS(=O)(=O)Cc1cccc(C(=O)O)c1)B(O)O` [6e], the Ki on ADC-33 was 3.7 ± 0.6 µM; at OXA-24/40 [2] it was over 1000 µM.
For `CO/N=C(\C(=O)N[C@@H]1C(=O)N2C(C(=O)O)=C(COC(C)=O)CS[C@H]12)c1csc(N)n1` [CTX, Cefotaxime, reference compound], the “MIC, antibiotic alone” value was found to be 128 µg/mL in test [3]; 64 µg/mL in test [4]; 16 µg/mL in test [6]; 32 µg/mL in test [7]; 64 µg/mL in [8]; 1024 µg/mL in test [9]. In addition, the “MIC, antibiotic alone” value turned out to be 1024 µg/mL in test [10]; 1024 µg/mL in test [11]; 512 µg/mL in test [12]; 256 µg/mL in test [13]; 2048 µg/mL in [14].
On to `CC[C@@H](NS(=O)(=O)Cc1ccccc1)B(O)O` [6c], for which the Ki at ADC-33 was 193 ± 23 µM; on OXA-24/40 [2] it was over 1000 µM.
`C[C@@H](O)[C@H]1C(=O)N2C(C(=O)O)=C(SCCN=CN)C[C@H]12` [IMI, reference compound]: the “MIC, antibiotic alone” value turned out to be 256 µg/mL in test [8]; 128 µg/mL in [9]; 64 µg/mL in test [10]; 128 µg/mL in test [11]; 64 µg/mL in [12]; 128 µg/mL in test [13]. For the same compound, the “MIC, antibiotic alone” value in test [14] came to 128 µg/mL.
As for `CO/N=C(\C(=O)N[C@@H]1C(=O)N2C(C(=O)[O-])=C(C[N+]3(C)CCCC3)CS[C@H]12)c1csc(N)n1` [FEP, cefepime, reference compound], the “MIC, antibiotic alone” value was determined as 0.5 µg/mL in [3], 0.5 µg/mL in test [4], 32 µg/mL in [6] and 4 µg/mL in test [7].
